In patent US12077503B2, “Substituted cyclic amides and their use as herbicides” (FMC CORPORATION, priority 2015, dated 2024):

Assays:
Format in all cases: in vivo
[1] = system: Kochia (Kochia scoparia); assay: Test A preemergence
Summary of the method: (§1)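 Ratings of 0 (no effect) to 100 (complete control) come from visual comparison with untreated controls roughly 10 d after treatment. Test chemicals, formulated in a non-phytotoxic solvent mixture with surfactant, were applied either as a preemergence directed soil spray on seeded soil or postemergence to one- to two-leaf plants 2 to 10 cm tall.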

[2] = system: barnyardgrass (Echinochloa crus-galli); assay: Test A preemergence
Summary of the method: as §1

[3] = system: giant foxtail (Setaria faberii); assay: Test A preemergence
Summary of the method: as §1

[4] = system: pigweed (Amaranthus retroflexus); assay: Test A preemergence; conditions: preemergence
[5] = system: ragweed (common ragweed, Ambrosia elatior); assay: Test A preemergence; conditions: preemergence
Summary of the method: as §1

[6] = system: ryegrass, Italian (Italian ryegrass, Lolium multiflorum); assay: Test A preemergence; conditions: preemergence
Summary of the method: as §1

[7] = system: Galium (catchweed bedstraw, Galium aparine); assay: Test A postemergence; conditions: postemergence, 0 to 100 scale (0 no effect, 100 complete control)
Summary of the method: as §1

[8] = system: Kochia (Kochia scoparia); assay: Test A postemergence; conditions: postemergence, 0 to 100 scale (0 no effect, 100 complete control)
Summary of the method: as §1

[9] = system: barnyardgrass (Echinochloa crus-galli); assay: Test A postemergence; conditions: postemergence, 0 to 100 scale (0 no effect, 100 complete control)
Summary of the method: as §1

[10] = system: blackgrass (Alopecurus myosuroides); assay: Test A postemergence; conditions: postemergence, 0 to 100 scale (0 no effect, 100 complete control)
Summary of the method: as §1

[11] = system: corn (Zea mays); assay: Test A postemergence; conditions: postemergence, 0 to 100 scale (0 no effect, 100 complete control)
Summary of the method: as §1

[12] = system: giant foxtail (Setaria faberii); assay: Test A postemergence; conditions: postemergence, 0 to 100 scale (0 no effect, 100 complete control)
Summary of the method: as §1

[13] = system: pigweed (Amaranthus retroflexus); assay: Test A postemergence; conditions: postemergence, 0 to 100 scale (0 no effect, 100 complete control)
Summary of the method: as §1

[14] = system: ragweed (common ragweed, Ambrosia elatior); assay: Test A postemergence; conditions: postemergence, 0 to 100 scale (0 no effect, 100 complete control)
Summary of the method: as §1

[15] = system: ryegrass, Italian (Italian ryegrass, Lolium multiflorum); assay: Test A postemergence; conditions: postemergence, 0 to 100 scale (0 no effect, 100 complete control)
Summary of the method: as §1

[16] = system: wheat (Triticum aestivum); assay: Test A postemergence; conditions: postemergence, 0 to 100 scale (0 no effect, 100 complete control)
Summary of the method: as §1

[17] = system: barnyardgrass (Echinochloa crus-galli); assay: Test B flooded paddy test; conditions: Flood, 250 g ai/ha; 0 to 100 scale where 0 is no effect and 100 is complete control; 13 to 15 d
Summary of the method: (§2)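 Compound goes directly into floodwater once pots are flooded 3 cm above soil, targeting plants at two leaves; the water depth is then held for the test duration. Plants sit 13–15 d in a greenhouse and are rated visually, 100 denoting complete control.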

[18] = system: ducksalad (Heteranthera limosa); assay: Test B flooded paddy test; conditions: Flood, 250 g ai/ha; 0 to 100 scale where 0 is no effect and 100 is complete control; 13 to 15 d
Summary of the method: as §2

[19] = system: rice (Oryra sativa); assay: Test B flooded paddy test; conditions: Flood, 250 g ai/ha; 0 to 100 scale where 0 is no effect and 100 is complete control; 13 to 15 d
Summary of the method: as §2

[20] = system: sedge, umbrella (small-flower umbrella sedge, Cyperus difformis); assay: Test B flooded paddy test; conditions: Flood, 250 g ai/ha; scale of 0 to 100 where 0 is no effect and 100 is complete control
Summary of the method: as §2

[21] = system: pigweed (Amaranthus retroflexus); assay: Test C preemergence; conditions: for Plant response rating (scale of 0 to 100), Pigweed: 0 is no effect, 100 is complete control; for Plant response rating, Pigweed: scale 0 to 100, 0 no effect, 100 complete control
Summary of the method: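 Assessment: visual, 13–15 d after treatment, 0 (no effect) to 100 (complete control) relative to controls. Treatment: preemergence to seeds in loam-sand soil, or postemergence to 1- to 4-leaf plants in peat-based medium. Formulation: non-phytotoxic solvent mixture with surfactant.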

[22] = 125 g ai/ha, Preemergence, visual injury after approximately 10 d, 0 to 100 scale where 0 is no effect and 100 is complete control
[23] = 500 g ai/ha, preemergence, 0 to 100 scale, 0 = no effect, 100 = complete control
[24] = 125 g ai/ha, visual rating after approx. 10 d, 0 to 100 scale where 0 is no effect and 100 is complete control
[25] = 500 g ai/ha, 0 to 100 scale, 0 = no effect, 100 = complete control
[26] = 125 g ai/ha, visual injury after approximately 10 d
[27] = 500 g ai/ha, visual injury, approx. 10 d
[28] = 125 g ai/ha, visual rating after approx. 10 d

CN1CC(c2ccc(C(C)(F)F)cc2)C(C(=O)Nc2ccccc2F)C1=O (stereo not shown) [Compound 691]
90: Plant response rating, Kochia [1, 23] | Plant response rating, Barnyardgrass [2, 22] | Plant response rating, Barnyardgrass [2, 23] | Plant response rating, Foxtail, Giant [3, 22] | Plant response rating, Foxtail, Giant [3, 23] | Plant response rating, Ragweed [5, 25] | Plant response rating, Corn [11, 27] | Plant response rating, Pigweed ([21]; 62 g ai/ha)
25: Plant response rating, Rice [19]
80: Plant response rating, Kochia [1, 22] | Plant response rating, Pigweed [4, 25] | Plant response rating, Kochia [8, 27] | Plant response rating, Barnyardgrass [9, 28] | Plant response rating, Barnyardgrass [9, 27] | Plant response rating, Foxtail, Giant [12, 26] | Plant response rating, Foxtail, Giant [12, 27]
95: Plant response rating, Ducksalad [18]
100: Plant response rating, Pigweed ([21]; 125 g ai/ha)
35: Plant response rating (scale of 0 to 100), Pigweed ([21]; 16 g ai/ha)
60: Plant response rating, Ragweed [5, 24] | Plant response rating, Ryegrass, Italian [6, 25] | Plant response rating, Blackgrass [10, 27] | Plant response rating, Corn [11, 26] | Plant response rating, Ragweed [14, 27] | Plant response rating, Ryegrass, Italian [15, 27] | Plant response rating, Wheat [16, 27]
50: Plant response rating, Ryegrass, Italian [6, 24] | Plant response rating, Blackgrass [10, 28] | Plant response rating, Ragweed [14, 26] | Plant response rating, Ryegrass, Italian [15, 26] | Plant response rating, Wheat [16, 26]
70: Plant response rating, Pigweed [4, 24] | Plant response rating, Galium [7, 26] | Plant response rating, Galium [7, 27] | Plant response rating, Kochia [8, 26] | Plant response rating, Pigweed [13, 27] | Plant response rating, Barnyardgrass [17]
85: Plant response rating (scale of 0 to 100), Pigweed ([21]; 31 g ai/ha)
40: Plant response rating, Pigweed [13, 26]
0: Sedge, Umbrella plant response rating [20]
